Data taken from article PMC10819888, “Benzimidazole-Based Derivatives as Apoptotic Antiproliferative Agents: Design, Synthesis, Docking, and Mechanistic Studies” (Molecules, 2024).

Columns and labels:
Assay in all cases: NCI-60 one-dose assay
Assay type in all cases: cell-based
HOP-62 = details: Homo sapiens, HOP-62 (Non-Small Cell Lung Cancer), read-out: Cell Inhibition Percent
Experimental: (§1) The final compounds were submitted to the National Cancer Institute, Bethesda, USA, for screening in vitro for anti-cancer. […] compounds, 4a–j, 5, and 6, were selected according to the Development Therapeutic Program (DTP) protocol. The selected compounds were evaluated for their in vitro cytotoxic activity against a panel of sixty cancer cell lines (NCI-60 cell line panel) derived from six cell lines panel of leukemia, nine cell lines of lung cancer, six cell lines of CNS cancer, seven cell lines of colon cancer, eight cell lines of melanoma, six cell lines of ovarian cancer, eight cell lines of renal cancer, two cell lines of prostate cancer, and eight cell lines of breast cancer, representing the full nine human systems as leukemia, melanoma, and cancers of the lung, colon, brain, breast, ovary, kidney, and prostate.
(§2) The selected compounds 4a–j, 5, and 6 were tested at a single concentration of 10 µM. The screening results for the selected compounds are illustrated in Table 1.
(§3) The NCI anti-cancer screening methodology has been described in detail elsewhere (http://www.dtp.nci.nih.gov, accessed on 20 February 2021). Following the Drug Evaluation Branch protocol, National Cancer Institute, Bethesda, USA, a primary anti-cancer assay was performed on approximately 60 human tumor cell line panels derived from nine neoplastic diseases.

BT-549 = details: Homo sapiens, BT-549 (Breast Cancer), read-out: Cell Inhibition Percent
Experimental: as §1, §2, §3

HOP-92 = details: Homo sapiens, HOP-92 (Non-Small Cell Lung Cancer), read-out: Cell Inhibition Percent
Experimental: as §1, §2, §3

SF-539 = details: Homo sapiens, SF-539 (CNS cancer), read-out: Cell Inhibition Percent
Experimental: as §1, §2, §3

786-0 = details: Homo sapiens, 786-0 (Renal Cancer), read-out: Cell Inhibition Percent
Experimental: as §1, §2, §3

SN12C = details: Homo sapiens, SN12C (Renal Cancer), read-out: Cell Inhibition Percent
Experimental: as §1, §2, §3

HT29 = details: Homo sapiens, HT-29, HT29 (Colon Cancer), read-out: Cell Inhibition Percent
Experimental: as §1, §2, §3

SF-268 = details: Homo sapiens, SF-268 (CNS cancer), read-out: Cell Inhibition Percent
Experimental: as §1, §2, §3

CCRF-CEM = details: Homo sapiens, CCRF-CEM (Leukemia), read-out: Cell Inhibition Percent
Experimental: as §1, §2, §3

MOLT-4 = details: Homo sapiens, MOLT-4 (Leukemia), read-out: Cell Inhibition Percent
Experimental: as §1, §2, §3

SNB-19 = details: Homo sapiens, SNB-19 (CNS cancer), read-out: Cell Inhibition Percent
Experimental: as §1, §2, §3

SK-OV-3 = details: Homo sapiens, SK-OV-3 (ovarian cancer), read-out: Cell Inhibition Percent
Experimental: as §1, §2, §3

NCI/ADR-RES = details: Homo sapiens, NCI/ADR-RES (ovarian cancer), read-out: Cell Inhibition Percent
Experimental: as §1, §2, §3

HS 578T = details: Homo sapiens, HS 578T (Breast Cancer), read-out: Cell Inhibition Percent
Experimental: as §1, §2, §3

SW-620 = details: Homo sapiens, SW-620 (Colon Cancer), read-out: Cell Inhibition Percent
Experimental: as §1, §2, §3

KM12 = details: Homo sapiens, KM12 (Colon Cancer), read-out: Cell Inhibition Percent
Experimental: as §1, §2, §3

OVCAR-4 = details: Homo sapiens, OVCAR-4 (ovarian cancer), read-out: Cell Inhibition Percent
Experimental: as §1, §2, §3

NCI-H226 = details: Homo sapiens, NCI-H226 (Non-Small Cell Lung Cancer), read-out: Cell Inhibition Percent
Experimental: as §1, §2, §3

MDA-MB-468 = details: Homo sapiens, MDA-MB-468 (Breast Cancer), read-out: Cell Inhibition Percent
Experimental: as §1, §2, §3

UACC-257 = details: Homo sapiens, UACC-257 (Melanoma), read-out: Cell Inhibition Percent
Experimental: as §1, §2, §3

DU-145 = details: Homo sapiens, DU-145 (Prostate Cancer), read-out: Cell Inhibition Percent
Experimental: as §1, §2, §3

NCI-H522 = details: Homo sapiens, NCI-H522 (Non-Small Cell Lung Cancer), read-out: Cell Inhibition Percent
Experimental: as §1, §2, §3

NCI-H460 = details: Homo sapiens, NCI-H460 (Non-Small Cell Lung Cancer), read-out: Cell Inhibition Percent
Experimental: as §1, §2, §3

K-562 = details: Homo sapiens, K562, K-562 (Leukemia), read-out: Cell Inhibition Percent
Experimental: as §1, §2, §3

SK-MEL-28 = details: Homo sapiens, SK-MEL-28 (Melanoma), read-out: Cell Inhibition Percent
Experimental: as §1, §2, §3

UACC-62 = details: Homo sapiens, UACC-62 (Melanoma), read-out: Cell Inhibition Percent
Experimental: as §1, §2, §3

TK-10 = details: Homo sapiens, TK-10 (Renal Cancer), read-out: Cell Inhibition Percent
Experimental: as §1, §2, §3

CAKI-1 = details: Homo sapiens, CAKI-1 (Renal Cancer), read-out: Cell Inhibition Percent
Experimental: as §1, §2, §3

ACHN = details: Homo sapiens, ACHN (Renal Cancer), read-out: Cell Inhibition Percent
Experimental: as §1, §2, §3

SR = details: Homo sapiens, SR (Leukemia), read-out: Cell Inhibition Percent
Experimental: as §1, §2, §3

HCC-2998 = details: Homo sapiens, HCC-2998 (Colon Cancer), read-out: Cell Inhibition Percent
Experimental: as §1, §2, §3

SMILES | inhibition at 10 µM (HOP-62) [%] | inhibition at 10 µM (BT-549) [%] | inhibition at 10 µM (HOP-92) [%] | inhibition at 10 µM (SF-539) [%] | inhibition at 10 µM (786-0) [%] | inhibition at 10 µM (SN12C) [%] | inhibition at 10 µM (HT29) [%] | inhibition at 10 µM (SF-268) [%] | inhibition at 10 µM (CCRF-CEM) [%] | inhibition at 10 µM (MOLT-4) [%] | inhibition at 10 µM (SNB-19) [%] | inhibition at 10 µM (SK-OV-3) [%] | inhibition at 10 µM (NCI/ADR-RES) [%] | inhibition at 10 µM (HS 578T) [%] | inhibition at 10 µM (SW-620) [%] | inhibition at 10 µM (KM12) [%] | inhibition at 10 µM (OVCAR-4) [%] | inhibition at 10 µM (NCI-H226) [%] | inhibition at 10 µM (MDA-MB-468) [%] | inhibition at 10 µM (UACC-257) [%] | further results
O=C(NN=Cc1ccc([N+](=O)[O-])cc1)c1ccc2[nH]c(-c3ccc(Cl)cc3)nc2c1 [Compound 4c, N′-(4-Nitrobenzylidene)-2-(4-chlorophenyl)-1H-benzimidazole-5-carbohydrazide] | 55.2 | 86 | 40.3 | 58.3 | 51 | 80.3 | 91.8 | 51.5 | 90.1 | 95.8 | 48 | 39.5 | 22.7 | 63.2 | 87.3 | 87 | 77 | 45.2 | 139 | 74.9 | inhibition at 10 µM (DU-145): 58%; inhibition at 10 µM (NCI-H522): 67%; inhibition at 10 µM (NCI-H460): 94.6%; inhibition at 10 µM (K-562): 90.3%; inhibition at 10 µM (SK-MEL-28): 54.6%; inhibition at 10 µM (UACC-62): 56.4%; inhibition at 10 µM (TK-10): 10.2%; inhibition at 10 µM (CAKI-1): 57.2%; inhibition at 10 µM (ACHN): 67.7%; inhibition at 10 µM (SR): 108%; inhibition at 10 µM (HCC-2998): 85.1%
O=C(NN=Cc1ccc(F)cc1)c1ccc2[nH]c(-c3ccc(Cl)cc3)nc2c1 [Compound 4d, N′-(4-Fluorobenzylidene)-2-(4-chlorophenyl)-1H-benzimidazole-5-carbohydrazide] | 39.5 | 0 | 15.4 | 12 | 87.8 | 58.8 | 95.7 | 21.8 | 78.6 | 76.5 | 39.6 | 1.74 | 23 | 30 | 53.7 | 35.1 | 63.6 | 6.86 | 23.9 | 0 | inhibition at 10 µM (DU-145): 14.6%; inhibition at 10 µM (NCI-H522): 3.87%; inhibition at 10 µM (NCI-H460): 63.8%; inhibition at 10 µM (K-562): 61.2%; inhibition at 10 µM (SK-MEL-28): 28.1%; inhibition at 10 µM (UACC-62): 11.8%; inhibition at 10 µM (TK-10): 5.63%; inhibition at 10 µM (CAKI-1): 15.1%; inhibition at 10 µM (ACHN): 64.3%; inhibition at 10 µM (SR): 79.3%; inhibition at 10 µM (HCC-2998): 21%
O=C(NN=Cc1ccc(Cl)cc1)c1ccc2[nH]c(-c3ccc(Cl)cc3)nc2c1 [Compound 4e, N′-(4-Chlorobenzylidene)-2-(4-chlorophenyl)-1H-benzimidazole-5-carbohydrazide] | 92 | 0 | 71.9 | 62.9 | 142 | 137 | 98.3 | 62 | 84.5 | 95.5 | 95.7 | 50.2 | 58.8 | 67 | 128 | 129 | 118 | 0.67 | 144 | 68.3 | inhibition at 10 µM (DU-145): 69.5%; inhibition at 10 µM (NCI-H522): 36.8%; inhibition at 10 µM (NCI-H460): 134%; inhibition at 10 µM (K-562): 91.3%; inhibition at 10 µM (SK-MEL-28): 109%; inhibition at 10 µM (UACC-62): 83.2%; inhibition at 10 µM (TK-10): 104%; inhibition at 10 µM (CAKI-1): 38.8%; inhibition at 10 µM (ACHN): 120%; inhibition at 10 µM (SR): 124%; inhibition at 10 µM (HCC-2998): 96.3%
